Measurements as given in the supplement of paper PMC10307832.

What was measured:
Assay in all cases: relative viability (nuclei count vs DMSO), 5 days (fraction); higher = more cells survive
[1] = system: 201T
Summary of the method: (§1)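 Five library-drug doses in √10 steps were combined with a fixed anchor-drug dose, or a single drug was given alone, by pin tool to lung cancer cell lines in 1536-well plates the day after seeding. Nuclei were stained and counted after 5 days. Relative viability is the nuclei count in treated wells over that in vehicle wells, taken as the median of duplicate plates.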

[2] = system: NCI-H1623
Summary of the method: as §1

[3] = system: NCI-H1648
Summary of the method: as §1

[4] = system: HARA
Summary of the method: as §1

[5] = system: LXF-289
Summary of the method: as §1

[6] = system: HCC-78
Summary of the method: as §1

[7] = system: NCI-H1734
Summary of the method: as §1

[8] = system: NCI-H1975
Summary of the method: as §1

[9] = system: NCI-H1650
Summary of the method: as §1

COCC1(CO)C(=O)C2CCN1CC2 (stereo unspecified) [PRIMA-1MET] + Cc1cc(Nc2cc(N3CCN(C)CC3)nc(Sc3ccc(NC(=O)C4CC4)cc3)n2)n[nH]1 [Tozasertib] (partner 0.1 µM)
relative viability ([1]; first compound 0.2 µM): 1.12
relative viability ([1]; first compound 0.6325 µM): 0.912
relative viability ([1]; first compound 2 µM): 0.899
relative viability ([1]; first compound 6.325 µM): 0.908
relative viability ([1]; first compound 20 µM): 0.905
relative viability ([2]; first compound 0.2 µM): 0.474
relative viability ([2]; first compound 0.6325 µM): 0.449
relative viability ([2]; first compound 2 µM): 0.445
relative viability ([2]; first compound 6.325 µM): 0.452
relative viability ([2]; first compound 20 µM): 0.367
relative viability ([3]; first compound 0.2 µM): 0.415
relative viability ([3]; first compound 0.6325 µM): 0.361
relative viability ([3]; first compound 2 µM): 0.391
relative viability ([3]; first compound 6.325 µM): 0.574
relative viability ([3]; first compound 20 µM): 0.465
relative viability ([4]; first compound 0.2 µM): 0.119
relative viability ([4]; first compound 0.6325 µM): 0.0972
relative viability ([4]; first compound 6.325 µM): 0.112
relative viability ([4]; first compound 20 µM): 0.118
relative viability ([5]; first compound 0.2 µM): 0.217
relative viability ([5]; first compound 0.6325 µM): 0.173
relative viability ([5]; first compound 2 µM): 0.16
relative viability ([5]; first compound 6.325 µM): 0.175
relative viability ([5]; first compound 20 µM): 0.192
relative viability ([6]; first compound 0.2 µM): 0.47
relative viability ([6]; first compound 0.6325 µM): 0.414
relative viability ([6]; first compound 6.325 µM): 0.385
relative viability ([6]; first compound 20 µM): 0.228
relative viability ([7]; first compound 0.2 µM): 0.294
relative viability ([7]; first compound 0.6325 µM): 0.265
relative viability ([7]; first compound 2 µM): 0.233
relative viability ([7]; first compound 6.325 µM): 0.181
relative viability ([7]; first compound 20 µM): 0.0526
relative viability ([8]; first compound 0.2 µM): 1.05
relative viability ([8]; first compound 0.6325 µM): 0.726
relative viability ([8]; first compound 2 µM): 0.878
relative viability ([8]; first compound 6.325 µM): 0.738
relative viability ([8]; first compound 20 µM): 0.454
relative viability ([9]; first compound 0.2 µM): 0.516
relative viability ([9]; first compound 0.6325 µM): 0.377
relative viability ([9]; first compound 2 µM): 0.492
relative viability ([9]; first compound 6.325 µM): 0.537
relative viability ([9]; first compound 20 µM): 0.0907

COCC1(CO)C(=O)C2CCN1CC2 (stereo unspecified) [PRIMA-1MET] + COc1cccc2cc(-c3nc([C@H]4CC[C@H](C(=O)O)CC4)n4ncnc(N)c34)[nH]c12 [OSI-027] (partner 0.5 µM)
relative viability ([1]; first compound 0.2 µM): 0.82
relative viability ([1]; first compound 0.6325 µM): 0.702
relative viability ([1]; first compound 2 µM): 0.591
relative viability ([1]; first compound 6.325 µM): 0.759
relative viability ([1]; first compound 20 µM): 0.747
relative viability ([2]; first compound 0.2 µM): 0.374
relative viability ([2]; first compound 0.6325 µM): 0.405
relative viability ([2]; first compound 2 µM): 0.445
relative viability ([2]; first compound 6.325 µM): 0.42
relative viability ([2]; first compound 20 µM): 0.303
relative viability ([3]; first compound 0.2 µM): 0.24
relative viability ([3]; first compound 0.6325 µM): 0.252
relative viability ([3]; first compound 2 µM): 0.283
relative viability ([3]; first compound 6.325 µM): 0.256
relative viability ([3]; first compound 20 µM): 0.249
relative viability ([4]; first compound 0.2 µM): 0.463
relative viability ([4]; first compound 0.6325 µM): 0.48
relative viability ([4]; first compound 6.325 µM): 0.59
relative viability ([4]; first compound 20 µM): 0.417
relative viability ([5]; first compound 0.2 µM): 0.889
relative viability ([5]; first compound 0.6325 µM): 0.803
relative viability ([5]; first compound 2 µM): 0.527
relative viability ([5]; first compound 6.325 µM): 0.874
relative viability ([5]; first compound 20 µM): 0.759
relative viability ([6]; first compound 0.2 µM): 0.385
relative viability ([6]; first compound 0.6325 µM): 0.345
relative viability ([6]; first compound 6.325 µM): 0.339
relative viability ([6]; first compound 20 µM): 0.199
relative viability ([7]; first compound 0.2 µM): 0.709
relative viability ([7]; first compound 0.6325 µM): 0.508
relative viability ([7]; first compound 2 µM): 0.413
relative viability ([7]; first compound 6.325 µM): 0.532
relative viability ([7]; first compound 20 µM): 0.0554
relative viability ([8]; first compound 0.2 µM): 0.879
relative viability ([8]; first compound 0.6325 µM): 0.62
relative viability ([8]; first compound 2 µM): 0.604
relative viability ([8]; first compound 6.325 µM): 0.777
relative viability ([8]; first compound 20 µM): 0.738
relative viability ([9]; first compound 0.2 µM): 0.742
relative viability ([9]; first compound 0.6325 µM): 0.664
relative viability ([9]; first compound 2 µM): 0.483
relative viability ([9]; first compound 6.325 µM): 0.636
relative viability ([9]; first compound 20 µM): 0.0483
